Test results as given in patent publication US20140364431A1, “Quinoline and cinnoline derivatives and their applications” (Shenyang Pharmaceutical University, priority 2011, published 2014).
Values after ≈ are worked out from the molar mass of the structure shown. Read-outs that look alike come from different tables or passages of the source.

Legend:
[1] = system: SMMC-7721 (hepatoma cell); assay: In vitro anti-tumor cellular activity (MTT), SMMC-7721; assay type: cell-based, human; conditions: for IC50: Homo sapiens, read-out: SMMC-7721 IC50
[2] = target: T1, c-Met (His-tagged recombinant human Met (Amino acids 974-ends)) (Homo sapiens, UniProt P08581); assay: c-Met kinase assay (ELISA); assay type: biochemical; conditions: 50 pM c-Met, 5 μM ATP, 20 min
T1 construct: His-tagged recombinant human Met (Amino acids 974-ends); His; host or cells: baculovirus expression
T1 sequence (P08581 974-1390 limits assumed): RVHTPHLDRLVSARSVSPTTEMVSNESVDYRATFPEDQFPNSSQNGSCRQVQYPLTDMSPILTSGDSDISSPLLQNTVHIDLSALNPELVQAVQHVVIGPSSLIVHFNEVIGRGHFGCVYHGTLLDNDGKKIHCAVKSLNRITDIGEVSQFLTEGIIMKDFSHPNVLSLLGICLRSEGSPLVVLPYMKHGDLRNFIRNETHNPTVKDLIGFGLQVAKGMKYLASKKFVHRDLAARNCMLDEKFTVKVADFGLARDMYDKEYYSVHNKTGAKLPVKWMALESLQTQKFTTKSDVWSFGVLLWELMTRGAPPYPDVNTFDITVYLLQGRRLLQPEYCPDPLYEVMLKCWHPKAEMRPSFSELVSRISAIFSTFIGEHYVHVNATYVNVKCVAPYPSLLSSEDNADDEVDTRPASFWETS
Protocol: c-Met kinase activity was measured with an ELISA reader.
The reaction mixture was removed by washing with 0.2 μg/mL conjugated horseradish peroxidase (HRP) monoclonal antibody specific for phosphotyrosine (PY20) detecting phosphorylation of the substrate polymer. 1M phosphoric acid was added to terminate the color, the chromogenic substrate (TMB) was tested by spectrophotometry at 450 nm.

[3] = system: U87MG (Human malignant glioblastoma cells); assay: In vitro anti-tumor cellular activity (MTT), U87MG; assay type: cell-based; conditions: for IC50: Homo sapiens, U-87 MG, read-out: U87MG IC50
[4] = system: MKN-45 (human gastric carcinoma cell); assay: In vitro anti-tumor cellular activity (MTT), MKN-45; assay type: cell-based; conditions: for IC50: Homo sapiens, read-out: MKN-45 IC50
[5] = system: H460 (human lung cancer cell); assay: In vitro anti-tumor cellular activity (MTT), H460; assay type: cell-based; conditions: for IC50: Homo sapiens, read-out: H460 IC50
[6] = system: HT-29 (colon cancer cell); assay: In vitro anti-tumor cellular activity (MTT), HT-29; assay type: cell-based, human; conditions: for IC50: Homo sapiens, read-out: HT-29 IC50

Compound	IC50 ([1]; MTT, 72 hours, SMMC-7721) [µg/mL]	IC50 [2] [nM]	IC50 ([3]; MTT, 72 hours, U87MG) [µg/mL]	IC50 ([4]; MTT, 72 hours, MKN-45) [µg/mL]	IC50 ([5]; NCI-H460, MTT, 72 hours, H460) [µg/mL]	IC50 ([6]; MTT, 72 hours, HT-29) [µg/mL]	also measured
COc1cc2c(Oc3ccc(NC(=O)c4nn(-c5ccc(F)cc5)c5ccccc5c4=O)cc3F)cnnc2cc1OCCCN1CCN(C)CC1 [Example 69, N-(3-fluoro-4-((6-methoxy-7-(3-(4-methylpiperazin-1-yl)propoxy)cinnolin-4-yl)oxy)phenyl)-1-(4-fluorophenyl)-4-oxo-1,4-dihydrocinnoline-3-carboxamide]	1.3 (≈ 1.84 µM)	1550	1.8 (≈ 2.54 µM)	2.6 (≈ 3.67 µM)	2.3 (≈ 3.25 µM)	2.1 (≈ 2.97 µM)	–
COc1cc2c(Oc3ccc(NC(=O)c4nn(-c5ccccc5F)c5ccccc5c4=O)cc3F)ccnc2cc1OCCCN1CCCC1 [Example 41, N-(3-fluoro-4-((6-methoxy-7-(3-(pyrrolidin-1-yl)propoxy)quinolin-4-yl)oxy)phenyl)-1-(2-fluorophenyl)-4-oxo-1,4-dihydrocinnoline-3-carboxamide]	–	2070	–	–	–	–	–
COc1cc2c(Oc3ccc(NC(=O)c4nn(-c5cc(C(F)(F)F)ccc5Cl)c5ccccc5c4=O)cc3F)ccnc2cc1OCCCN1CCN(C)CC1 [Example 23, N-(3-fluoro-4-((6-methoxy-7-(3-(4-methylpiperazin-1-yl)propoxy)quinolin-4-yl)oxy)phenyl)-1-(2-chloro-5-(trifluoromethyl)phenyl)-4-oxo-1,4-dihydrocinnoline-3-carboxamide]	1.4 (≈ 1.77 µM)	404	1.3 (≈ 1.64 µM)	0.9 (≈ 1.14 µM)	1 (≈ 1.26 µM)	0.7 (≈ 0.885 µM)	–
COc1cc2c(Oc3ccc(NC(=O)c4nn(-c5ccc(Cl)cc5Cl)c5ccccc5c4=O)cc3F)ccnc2cc1OCCCN1CCN(C)CC1 [Example 43, N-(3-fluoro-4-((6-methoxy-7-(3-(4-methylpiperazin-1-yl)propoxy)quinolin-4-yl)oxy)phenyl)-1-(2,4-dichlorophenyl)-4-oxo-1,4-dihydrocinnoline-3-carboxamide]	–	924	–	–	–	–	IC50 ([1]; SMMC-7721, 72 h): 1.8 µg/mL (≈ 2.38 µM); IC50 ([3]; 72 h): 0.77 µg/mL (≈ 1.02 µM); IC50 ([4]; MKN-45, 72 h): 0.45 µg/mL (≈ 0.594 µM); IC50 ([5]; NCI-H460, 72 h): 0.53 µg/mL (≈ 0.7 µM); IC50 ([6]; HT-29, 72 h): 1.2 µg/mL (≈ 1.58 µM)
N-(3-fluoro-4-((6-methoxy-7-(3-(4-methylpiperazin-1-yl)propoxy)quinolin-4-yl)oxy)phenyl)-1-(2-chlorophenyl)-4-oxo-1,4-dihydrocinnoline-3-carboxamide dihydrochloride [Example 17]	–	–	–	–	–	–	SMMC-7721 IC50 ([1]; MTT, 72 hours, SMMC-7721): 0.5 µg/mL; c-Met IC50 [2]: 0.2 µg/mL; U87MG IC50 ([3]; MTT, 72 hours, U87MG): 0.9 µg/mL; MKN-45 IC50 ([4]; MTT, 72 hours, MKN-45): 2.1 µg/mL; H460 IC50 ([5]; MTT, 72 hours, H460): 1.4 µg/mL; HT-29 IC50 ([6]; MTT, 72 hours, HT-29): 1.8 µg/mL
COc1cc2c(Oc3ccc(NC(=O)c4nn(-c5ccc(F)cc5)c5ccccc5c4=O)cc3F)ccnc2cc1OCCCN1CCN(C)CC1 [Example 42, N-(3-fluoro-4-((6-methoxy-7-(3-(4-methylpiperazin-1-yl)propoxy)quinolin-4-yl)oxy)phenyl)-1-(4-fluorophenyl)-4-oxo-1,4-dihydrocinnoline-3-carboxamide]	1.6 (≈ 2.26 µM)	1410	2.1 (≈ 2.97 µM)	–	2.7 (≈ 3.82 µM)	1.5 (≈ 2.12 µM)	–
N-(3-fluoro-4-((6-methoxy-7-(3-(4-methylpiperidin-1-yl)propoxy)quinolin-4-yl)oxy)phenyl)-1-(2-chlorophenyl)-4-oxo-1,4-dihydrocinnoline-3-carboxamide dihydrochloride [Example 15]	–	–	–	–	–	–	SMMC-7721 IC50 ([1]; MTT, 72 hours, SMMC-7721): 1.5 µg/mL; c-Met IC50 [2]: 0.66 µg/mL; U87MG IC50 ([3]; MTT, 72 hours, U87MG): 0.2 µg/mL; MKN-45 IC50 ([4]; MTT, 72 hours, MKN-45): 0.8 µg/mL; H460 IC50 ([5]; MTT, 72 hours, H460): 1 µg/mL; HT-29 IC50 ([6]; MTT, 72 hours, HT-29): 0.6 µg/mL
COc1cc2c(Oc3ccc(NC(=O)c4nn(-c5ccc(C)cc5C)c5ccccc5c4=O)cc3F)ccnc2cc1OCCCN1CCC(C)CC1 [Example 24, N-(3-fluoro-4-((6-methoxy-7-(3-(4-methylpiperidin-1-yl)propoxy)quinolin-4-yl)oxy)phenyl)-1-(2,4-dimethylphenyl)-4-oxo-1,4-dihydrocinnoline-3-carboxamide]	0.86 (≈ 1.2 µM)	1260	2.8 (≈ 3.91 µM)	0.8 (≈ 1.12 µM)	1.1 (≈ 1.54 µM)	1.4 (≈ 1.96 µM)	–
COc1cc2c(Oc3ccc(NC(=O)c4nn(-c5ccc(F)c(F)c5)c5ccccc5c4=O)cc3F)ccnc2cc1OCCCN1CCCCC1 [Example 11, N-(3-fluoro-4-((6-methoxy-7-(3-(piperidin-1-yl)propoxy)quinolin-4-yl)oxy)phenyl)-1-(3,4-difluorophenyl)-4-oxo-1,4-dihydrocinnoline-3-carboxamide]	0.63 (≈ 0.888 µM)	42.3	3.5 (≈ 4.93 µM)	0.12 (≈ 0.169 µM)	0.06 (≈ 0.0845 µM)	0.38 (≈ 0.535 µM)	–
